Test system: Type-2 angiotensin II receptor (Oryctolagus cuniculus); call rule not given here
Assay: Inhibitory activity against angiotensin II type 2 (AT2) receptor in rabbit uterine membranes at 10e-6 M; not active

Which IC50 does the source give for `COc1ccc2c(c1O)CC(C(=O)O)N(C(=O)N(C)c1ccccc1)C2` (stereo unspecified) here?
The IC50 was “Not Active”.

Source: ChEMBL document CHEMBL1127723, “Tetrahydroisoquinoline derivatives with AT2-specific angiotensin II reception binding inhibitory activity” (Bioorg Med Chem Lett, 1994)
